The source of these data is publication PMC10552471 (ACS Omega, 2023).

What all share (format): biochemical
In test [1] the target is T1, Plasmodium falciparum serine hydroxymethyltransferase (PfSHMT) (Plasmodium falciparum, UniProt Q8I566).
T1 sequence (Q8I566 1-442): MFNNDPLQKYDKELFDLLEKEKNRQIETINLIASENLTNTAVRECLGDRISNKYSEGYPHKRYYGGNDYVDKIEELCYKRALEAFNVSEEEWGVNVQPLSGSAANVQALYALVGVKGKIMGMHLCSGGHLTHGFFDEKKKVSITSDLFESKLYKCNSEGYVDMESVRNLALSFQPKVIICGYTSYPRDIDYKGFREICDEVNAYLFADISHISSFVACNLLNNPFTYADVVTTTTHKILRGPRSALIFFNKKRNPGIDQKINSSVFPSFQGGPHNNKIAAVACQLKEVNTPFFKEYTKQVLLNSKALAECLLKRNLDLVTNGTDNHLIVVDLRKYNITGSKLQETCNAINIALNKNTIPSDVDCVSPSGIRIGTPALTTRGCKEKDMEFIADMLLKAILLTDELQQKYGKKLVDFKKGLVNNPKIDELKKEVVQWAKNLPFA

The target of test [2] is T1, Plasmodium falciparum serine hydroxymethyltransferase (PfSHMT). Put plainly: MTHFD-coupled enzyme assay at a single concentration. Conditions: read-out: % inhibition at 100 μM.
The target is the same in test [3]. Put plainly: MTHFD-coupled enzyme assay, […], […] to […] h incubation. Conditions: read-out: % inhibition at 100 μM.

Counter-ions that a name gives are not always drawn.

Broadly, the IC50 is the concentration needed to halve the response being measured. Low readings indicate greater potency in that assay, high ones weaker potency in that assay. For the molecule `C[C@@H]1[C@H](O)[C@@H](C)/C=C/C=C/C=C/C=C/C=C/C=C/C=C/[C@H](O[C@@H]2O[C@H](C)[C@@H](O)[C@H](N)[C@@H]2O)C[C@@H]2O[C@](O)(C[C@@H](O)C[C@@H](O)[C@H](O)CC[C@@H](O)C[C@@H](O)CC(=O)O[C@H]1C)C[C@H](O)[C@H]2C(=O)O` [amphotericin B], the IC50 in test [1] was found to be 106 ± 1 µM.

One may read the inhibition as the change of the read-out against control, counted positive when it falls. On to `CC(C)[C@@]1(NC(=O)[C@@H]2C[C@@H]3c4cccc5[nH]cc(c45)C[C@H]3N(C)C2)O[C@@]2(O)[C@@H]3CCCN3C(=O)[C@H](Cc3ccccc3)N2C1=O` [dihydroergocristine mesylate], for which, in test [2], the inhibition at 100 µM lay in the range of 20 to 50%.

Take `CO[C@H]1/C=C/O[C@@]2(C)Oc3c(C)c(O)c4c(c3C2=O)C2=NC3(CCN(CC(C)C)CC3)NC2=C(NC(=O)/C(C)=C\C=C\[C@H](C)[C@H](O)[C@@H](C)[C@@H](O)[C@@H](C)[C@H](OC(C)=O)[C@@H]1C)C4=O` [rifabutin]: the inhibition at 100 µM in test [2] lay in the range of 20 to 50%.

In the case of `CO[C@H]1/C=C/O[C@@]2(C)Oc3c(C)c(O)c4c(O)c(c5c(nc6cc(C)ccn65)c4c3C2=O)NC(=O)/C(C)=C\C=C\[C@H](C)[C@H](O)[C@@H](C)[C@@H](O)[C@@H](C)[C@H](OC(C)=O)[C@@H]1C` [rifaximin], in test [3], the inhibition at 100 µM was about 60%.
